# Source: article PMC8401404 (Molecules, 2021)
# Tests used:
# [1] = system: NCI-H358; test: BrdU proliferation assay, 2D cell culture; assay type: cell-based, human; conditions: Homo sapiens, NCI-H358, 2D, n = 2, read-out: Proliferation Assay IC50 ± SD
# Protocol: (§1) MTS assay gives us information about the number of living cells, in this case, metabolically active cells, whereas the BrdU proliferation assay gives a measure of the cell population in active division phase. Both assays were performed in 2D and 3D assay formats. For the 2D cell assay format, we used classic two-dimensional in vitro assays and as a 3D assay we used a hanging drop proliferation cell assay as previously described. We explored the activity of compounds on three human lung cancer cell lines, A549, HCC827 and NCI-H358. The compound activity was also tested on human lung fibroblast cell line MRC-5. A two-dimensional in vitro viability assay was performed on the MRC-5 cell line to see if tested compounds are cytotoxic on normal cell lines in low concentrations. […] 7.1.
# (§2) Test compounds were synthesized by a research group at the Department of Organic Chemistry, Faculty of Chemical Engineering and Technology, University of Zagreb. […] Compounds were diluted 1:3. We transferred 500 nL (for 2D cell culture) or 400 nL (for 3D cell culture) of the compound from a mother plate to test plate by using Mosquito (TTP labtech). DMSO percentage in test concentrations was 0.5–1.0%. Starting concentration of the test compounds and standard compound doxorubicin was 50 µM (2D cell culture) or 100 µM (3D cell culture).
# (§3) Cells were grown in 96-well cell star polystyrene plates. We seeded 10,000 cells/well in wells 4 h prior to the treatment with different compounds concentrations and incubated for 72 h. A cell viability assay was performed according to the manufacturer’s instructions, using CellTiter 96 aqueous solution, MTS kit (Promega, Madison, WI, USA). After 0.5–2 h of cell incubation with MTS in 2D cell culture, the plates were read using PE EnVision absorbance at 490 nm.
# (§4) Proliferation assay was performed using Cell Proliferation ELISA, BrdU (Sigma, St. Louis, MO, USA). Briefly, 48 h hours after compound addition, 10 µM of BrdU was added to each well and incubated for the following 24 h. After incubation, a single cell suspension was made for 3D cell culture in the new 96-well plate. Plates were centrifuged and supernatants were removed from each plate (for 2D and 3D cell culture) followed by 60 min incubation at 60 °C. The rest of the proliferation assay was performed according to the manufacturer’s instructions.
# (§5) Calculation of IC50 data, curves and QC analysis was performed by using Excel tools and GraphPadPrism software (La Jolla, CA, USA), v. […] QC criteria parameters (Z’, S:B, R2, HillSlope) were checked for every IC50 curve.
# [2] = system: HCC827; test: BrdU proliferation assay, 2D cell culture; assay type: cell-based, human; conditions: Homo sapiens, HCC827, 2D, BrdU, n = 2, read-out: Proliferation Assay IC50 ± SD
# Protocol: as §1, §2, §3, §4, §5
# [3] = system: A549; test: BrdU proliferation assay, 2D cell culture; assay type: cell-based, human; conditions: Homo sapiens, A549, 2D, BrdU, n = 2, read-out: Proliferation Assay IC50 ± SD
# Protocol: as §1, §2, §3, §4, §5
# [4] = system: NCI-H358; test: BrdU proliferation assay, 3D hanging drop cell culture; assay type: cell-based, human; conditions: Homo sapiens, NCI-H358, 3D, n = 2, read-out: Proliferation Assay IC50 ± SD
# Protocol: as §1, §2
# (§6) Cells were grown in 96-well Perfecta 3D hanging drop plates 5000 cell/well for 4 days until spheres were formed (and checked under the microscope). After sphere formation cells were treated with compounds followed by 72 h incubation. Cell viability assay was performed according to the manufacturer’s instructions, using CellTiter GLO 3D for 3D cell culture (Promega); cell incubation was 5 min on the shaker followed by 25 min incubation in the dark. Plates were read using PE EnVision luminescence.
# as §4, §5
# [5] = system: HCC827; test: as above; assay type: cell-based, human; conditions: Homo sapiens, HCC827, 3D, BrdU, n = 2, read-out: Proliferation Assay IC50 ± SD
# Protocol: as §1, §2, §6, §4, §5
# [6] = system: A549; test: as above; assay type: cell-based, human; conditions: Homo sapiens, A549, 3D, BrdU, n = 2, read-out: Proliferation Assay IC50 ± SD
# Protocol: as §1, §2, §6, §4, §5
# [7] = system: NCI-H358; test: Cytotoxicity (viability) assay, 3D hanging drop cell culture; conditions: Homo sapiens, NCI-H358, 72 h, read-out: Cytotoxicity Assay IC50 ± SD; NCI-H358 3D
# Protocol: as §1, §2, §6, §5
# [8] = system: HCC827; test: as above; conditions: Homo sapiens, HCC827, 72 h, read-out: Cytotoxicity Assay IC50 ± SD; HCC827 3D
# Protocol: as §1, §2, §6, §5
# [9] = system: A549; test: as above; conditions: Homo sapiens, A549, 72 h, read-out: Cytotoxicity Assay IC50 ± SD; A549 3D
# Protocol: as §1, §2, §6, §5
# [10] = MTS cytotoxicity assay, 2D cell culture, normal lung fibroblasts; conditions: human, MRC-5 normal lung fibroblasts, 2D culture
# Protocol: as §1, §2, §3, §5
# [11] = system: S. aureus ATCC 29213; test: Broth microdilution testing (CLSI); assay type: cell-based, Staphylococcus aureus; conditions: Staphylococcus aureus, ATCC29213, broth microdilution, 16–24h at 37 °C; read-out: MIC S. aureus ATCC 29213
# Protocol: (§7) Broth microdilution testing was performed according to CLSI (Clinical Laboratory Standards Institute) guidelines. MIC (minimal inhibitory concentration) value was defined as the last tested concentration of compound at which there is no visible growth of bacteria. […] Clinical and Laboratory Standards Institute (CLSI) guidelines.
# [12] = system: NCI-H358; test: MTS cytotoxicity assay, 2D cell culture; conditions: Homo sapiens, NCI-H358, 72 h, read-out: Cytotoxicity Assay IC50 ± SD; NCI-H358 2D
# Protocol: as §1, §2, §3, §5
# [13] = system: HCC827; test: MTS cytotoxicity assay, 2D cell culture; conditions: Homo sapiens, HCC827, 72 h, read-out: Cytotoxicity Assay IC50 ± SD; HCC827 2D
# Protocol: as §1, §2, §3, §5
# [14] = system: A549; test: MTS cytotoxicity assay, 2D cell culture; conditions: Homo sapiens, A549, 72 h, read-out: Cytotoxicity Assay IC50 ± SD; A549 2D, 72 h, MTS; n = 2
# Protocol: as §1, §2, §3, §5
# [15] = system: S. cerevisiae ATCC 7752; test: Broth microdilution testing (CLSI); assay type: cell-based, Saccharomyces cerevisiae; conditions: Saccharomyces cerevisiae, ATCC7752; broth microdilution, 16–24h at 37 °C; read-out: MIC S. cerevisiae ATCC 7752
# Protocol: as §7
# [16] = system: E. coli ATCC 25922; test: Broth microdilution testing (CLSI); assay type: cell-based, Escherichia coli; conditions: Escherichia coli, ATCC25922; broth microdilution, 16–24h at 37 °C; read-out: MIC E. coli ATCC 25922
# Protocol: as §7
Structure (SMILES),IC50 [1] [µM],IC50 [2] [µM],IC50 [3] [µM],IC50 [4] [µM],IC50 [5] [µM],IC50 [6] [µM],IC50 [7] [µM],IC50 [8] [µM],IC50 [9] [µM],IC50 at 72 h [10] [µM],MIC [11] [µM],IC50 [12] [µM],IC50 [13] [µM],IC50 [14] [µM],MIC [15] [µM],MIC [16] [µM],melting point [°C]
"N#Cc1ccc2[nH]c(-c3ccc(-c4ccc(Cl)cc4)o3)nc2c1 [Compound 13, 2-[5-(4-Chlorophenyl)furan-2-yl]-5(6)-cyanobenzimidazole]",15.7 ± 0.86,> 50,22.7 ± 0.54,> 100,> 100,> 100,> 100,> 100,> 100,> 50,> 100,> 50,> 50,> 50,> 100,> 100,242 to 246
"N#C/C(=C\c1ccc(-c2ccc(Cl)cc2)o1)c1nc2ccccc2[nH]1 [Compound 20, (E)-2-(Benzimidazol-2-yl)-3-[5-(4-chlorophenyl)furan-2-yl]acrylonitrile]",14.4 ± 6.46,> 50,43.9 ± 54.3,> 100,0.16 ± 0.11,> 100,> 100,9.48 ± 1.15,> 100,> 50,> 100,31.1 ± 4.42,43.5 ± 8.17,> 50,> 100,> 100,292 to 294
"N#Cc1ccc2nc(-c3ccc(-c4ccc(Cl)cc4)o3)sc2c1 [Compound 7, 2-[5-(4-Chlorophenyl)furan-2-yl]-6-cyanobenzothiazole]",> 50,> 50,> 50,> 100,> 100,> 100,> 100,> 100,> 100,> 50,> 100,> 50,> 50,> 50,> 100,> 100,235 to 237
"N#Cc1ccc2[nH]c(-c3ccc(-c4ccc([N+](=O)[O-])cc4)o3)nc2c1 [Compound 10, 5(6)-Cyano-2-[5-(4-nitrophenyl)furan-2-yl]benzimidazole]",> 50,> 50,> 50,> 100,> 100,> 100,> 100,> 100,> 100,> 50,> 100,> 50,> 50,> 50,> 100,> 100,242 to 246
"N#C/C(=C\c1ccc(-c2ccc([N+](=O)[O-])cc2)o1)c1nc2ccccc2s1 [Compound 19, (E)-2-(Benzothiazol-2-yl)-3-[5-(4-nitrophenyl)furan-2-yl]acrylonitrile]",> 50,> 50,> 50,> 100,> 100,> 100,> 100,> 100,> 100,> 50,> 100,> 50,> 50,> 50,> 100,> 100,240 to 242
"N#Cc1ccc2nc(-c3ccc(-c4ccc([N+](=O)[O-])cc4)o3)sc2c1 [Compound 4, 6-Cyano-2-[5-(4-nitrophenyl)furan-2-yl]benzothiazole]",> 50,> 50,> 50,> 100,> 100,> 100,> 100,> 100,> 100,> 50,> 100,> 50,> 50,> 50,> 100,> 100,276 to 279
"N#C/C(=C\c1ccc(-c2ccc([N+](=O)[O-])cc2)o1)c1nc2ccccc2[nH]1 [Compound 17, (E)-2-(Benzimidazol-2-yl)-3-[5-(4-nitrophenyl)furan-2-yl]acrylonitrile]",> 50,> 50,> 50,> 100,> 100,> 100,> 100,> 100,> 100,> 50,> 100,> 50,> 50,> 50,> 100,> 100,273 to 274
